Source: patent publication US7288676B2, “Arylphenyl-substituted cyclic ketoenols” (Bayer CropScience AG, priority 1998, dated 2007)

Assays:
Type in all cases: in vivo
[1] = test system: larvae of the mustard beetle (Phaedon cochleariae); test: Phaedon larvae test; conditions: concentration of active compound 0.1 %, cabbage leaves (Brassica oleracea) dipped
Method: (§1) Phaedon larvae Test [table] To produce a suitable preparation of active compound, 1 part by weight of active compound is mixed with the stated amounts of solvent and emulsifier, and the concentrate is diluted with water to the desired concentration. Cabbage leaves (Brassica oleracea) are treated by being dipped into the preparation of active compound of the desired concentration and are populated with larvae of the mustard beetle (Phaedon cochleariae) while the leaves are still moist. After the desired period of time, the kill in % is determined. 100% means that all aphids have been killed; 0% means that none of the aphids have been killed.

[2] = test system: peach aphids (Myzus persicae); test: Myzus test; conditions: concentration of active compound 0.1 %, infested cabbage leaves (Brassica oleracea) dipped
Method: as §1, with “Myzus” for “Phaedon larvae”, “oleracea) which are heavily infested by peach aphids (Myzus persicae)” for “oleracea)”, “concentration.” for “concentration and are populated with larvae of the mustard beetle (Phaedon cochleariae) while the leaves are still moist.”

[3] = test system: larvae of the green rice leaf-hopper (Nephotettix cincticeps); test: Nephotettix test; conditions: active compound 0.1 %, rice seedlings (Oryza sativa) dipped
Method: as §1, with “Nephotettix” for “Phaedon larvae”, “Rice seedlings (Oryza sativa)” for “Cabbage leaves (Brassica oleracea)”, “green rice leaf-hopper (Nephotettix cincticeps)” for “mustard beetle (Phaedon cochleariae)”, “leaf-hoppers” for “aphids”

COC1CCC2(CC1)NC(=O)C(c1c(C)cc(-c3ccc(Cl)cc3)cc1Cl)=C2O (centres unmarked) [drawing 174]
Kill in % after 7 days [1]: 100%

CCOC1CCC2(CC1)NC(=O)C(c1c(C)cc(-c3ccc(Cl)cc3)cc1C)=C2O (centres unmarked) [drawing 171]
Kill in % after 6 days [2]: 95%

CCOC1CCC2(CC1)NC(=O)C(c1c(C)cc(-c3ccc(Cl)cc3)cc1C)=C2O (centres unmarked) [drawing 175]
Kill in % after 7 days [1]: 100%

COC1CCC2(CC1)NC(=O)C(c1c(C)cc(-c3ccc(Cl)cc3)cc1Cl)=C2O (centres unmarked) [drawing 172]
Kill in % after 6 days [3]: 100%

CCOC1CCC2(CC1)NC(=O)C(c1c(C)cc(-c3ccc(Cl)cc3)cc1C)=C2O (centres unmarked) [drawing 173]
Kill in % after 6 days [3]: 100%
